Key:
[1] = tested on: HPK1; test: HPK1 immune complex in vitro kinase (IVK) assay, endogenous HPK1 from treated Jurkat cells; type: cell-based, human; details: for PGE2-induced HPK1 activity: Jurkat cells pretreated with 10 μM H-89, then PGE2; for HPK1 kinase activity (IVK) after phosphatase inhibitor: Jurkat cells, 10 min at 37° C., 100 nM calyculin A, 10 nM okadaic acid, 2 μg/ml cyclosporine A, 10 nM pervanadate
[2] = biological target: HA-tagged murine HPK1 point mutant S171A (UniProt P70218)
[3] = biological target: HA-tagged murine HPK1 point mutant R168K (UniProt P70218)
[4] = biological target: HA-tagged murine HPK1 point mutant R169K (UniProt P70218)

Molecule: O=S(=O)(NCCNC/C=C/c1ccc(Br)cc1)c1cccc2cnccc12 [H-89]
- PGE2-induced HPK1 activity [1]: blocked
- PGE2-induced HPK1 activity ([1]; listed as H89): blocks PGE2-induced HPK1 activation

Molecule: COC[C@@H]([C@H](O)[C@H](O)C(=O)NCC[C@H](C)c1nc(/C=C/C[C@@H]2O[C@]3(C[C@@H](O)[C@@H]2C)O[C@H]([C@H](C[C@H](O)[C@H](C)[C@H](O)[C@H](C)/C=C(C)/C(C)=C/C=C/C(C)=C\C#N)OC)[C@H](OP(=O)(O)O)C3(C)C)co1)N(C)C [calyculin A]
- HPK1 kinase activity (IVK) after phosphatase inhibitor [1]: activated HPK1 kinase activity

Molecule: C=C1[C@@H](O)[C@@H]2O[C@]3(CC[C@H](/C=C/[C@@H](C)[C@@H]4CC(C)=C[C@@]5(O[C@H](C[C@@](C)(O)C(=O)O)CC[C@H]5O)O4)O3)CC[C@H]2O[C@@H]1[C@@H](O)C[C@H](C)[C@H]1O[C@@]2(CCCCO2)CC[C@H]1C [okadaic acid]
- HPK1 kinase activity (IVK) after phosphatase inhibitor [1]: activated HPK1 kinase activity

Molecule: cAMP-dependent protein kinase A (PKA), endogenous in Jurkat T cells
- HPK1 kinase activity (IVK assay) in response to PGE2 stimulation [2]: mutation of serine 171 ablated the response of HPK1 to PGE2 stimulation signals
- HPK1 kinase activity (IVK assay) in response to PGE2 stimulation [3]: Arginine to lysine mutations at either residue 168 or 169 of HPK1 reduced the responsiveness to PGE2 stimulation by approximately 90%
- HPK1 kinase activity (IVK assay) in response to PGE2 stimulation [4]: Arginine to lysine mutations at either residue 168 or 169 of HPK1 reduced the responsiveness to PGE2 stimulation by approximately 90%

Molecule: cholera toxin
- HPK1 kinase activity (IVK) after PKA activator [1]: robustly induced HPK1 kinase activity

Molecule: pervanadate
- HPK1 kinase activity (IVK) after phosphatase inhibitor [1]: induced a response in HPK1 catalytic activity
